Converted amounts (≈) assume the structure as drawn.
The compounds below were run on T1, α-glucosidase (assay: intrinsic fluorescence quenching, excitation […] nm). Conditions: 298 K; double-log; n = 0.9843.
T1 construct: gene MAL12; docking used PDB 3A4A (isomaltase IMA1), not the tested protein
Format: binding, Saccharomyces cerevisiae

| Ka | SMILES |
| --- | --- |
| 77786 L/mol | O=c1c(O)c(-c2cc(O)c(O)c(O)c2)oc2cc(O)cc(O)c12 [compound 1, myricetin] |

Same assay, conditions: 298 K; double-log; n = 1.0572

| Ka | SMILES |
| --- | --- |
| 57637 L/mol | O=C1c2c(O)cc(O)cc2O[C@H](c2cc(O)c(O)c(O)c2)[C@H]1O [compound 8, dihydromyricetin] |

These compounds were tested against T1, α-glucosidase (assay: pNP-G hydrolysis, absorbance […] nm). Conditions: pNP-G (1 mM stock, 1 mL added), 0.1 M phosphate pH 6.8, 37 °C, 10 min preincubation.
Format: biochemical, Saccharomyces cerevisiae

| IC50 | SMILES |
| --- | --- |
| 2.09 µg/mL (≈ 6.57 µM) | O=c1c(O)c(-c2cc(O)c(O)c(O)c2)oc2cc(O)cc(O)c12 [compound 1, myricetin] |
| 5.50 µg/mL (≈ 19.2 µM) | O=c1c(O)c(-c2ccc(O)c(O)c2)oc2cc(O)ccc12 [compound 2, fisetin] |
| 6.75 µg/mL (≈ 25 µM) | O=c1cc(-c2ccccc2)oc2cc(O)c(O)c(O)c12 [compound 4, baicalein] |
| 27.22 µg/mL (≈ 95.1 µM) | O=c1cc(-c2ccc(O)c(O)c2)oc2cc(O)cc(O)c12 [compound 5, luteolin] |
| 36.29 µg/mL (≈ 142 µM) | O=C(/C=C/c1ccc(O)cc1)c1ccc(O)cc1O [compound 6, isoliquiritigenin] |
| 70.07 µg/mL (≈ 276 µM) | O=c1cc(-c2ccccc2)oc2cc(O)cc(O)c12 [compound 7, chrysin] |
| 85.95 µg/mL (≈ 268 µM) | O=C1c2c(O)cc(O)cc2O[C@H](c2cc(O)c(O)c(O)c2)[C@H]1O [compound 8, dihydromyricetin] |
| 123.04 µg/mL (≈ 549 µM) | O=C(/C=C/c1ccc(O)cc1)c1ccccc1 [compound 9, 4-hydroxychalcone] |
| 199.10 µg/mL (≈ 888 µM) | O=C(/C=C/c1ccccc1)c1ccc(O)cc1 [compound 10, 4′-hydroxychalcone] |
| 286.60 µg/mL (≈ 948 µM) | COc1ccc([C@@H]2CC(=O)c3c(O)cc(O)cc3O2)cc1O [compound 11, hesperetin] |
| > 500 µg/mL | C[C@@H]1O[C@@H](O[C@H]2[C@H](Oc3cc(O)c4c(c3)O[C@H](c3ccc(O)cc3)CC4=O)O[C@H](CO)[C@@H](O)[C@@H]2O)[C@H](O)[C@H](O)[C@H]1O [compound 12, naringin] |
| > 500 µg/mL | COc1ccc([C@@H]2CC(=O)c3c(O)cc(O[C@@H]4O[C@H](CO[C@@H]5O[C@@H](C)[C@H](O)[C@@H](O)[C@H]5O)[C@@H](O)[C@H](O)[C@H]4O)cc3O2)cc1O [compound 13, hesperidin] |
| > 500 µg/mL | O=C(O)[C@H]1O[C@@H](Oc2cc3oc(-c4ccccc4)cc(=O)c3c(O)c2O)[C@H](O)[C@@H](O)[C@@H]1O [compound 14, baicalin] |

— publication PMC6770089, “Interaction Mechanism of Flavonoids and α-Glucosidase: Experimental and Molecular Modelling Studies” (Foods, 2019)
